Values quoted from earlier work as cited in patent US20020102214A1, “Paramagnetic material-containing magnetic resonance external marker or calibration composition” (NYCOMED IMAGING AS., priority 1996, published 2002).

Settings: at MRI fields, between 20° C. to 35° C., based on relaxivity data

O=C([O-])CN(CCN(CC(=O)[O-])CC(=O)O)CCN(CC(=O)[O-])CC(=O)O.[Gd+3] [GdDTPA]
variation of signal intensity with temperature: about 20%
